Here are results for 21 compounds from patent US5324725A, “7-fused 2-(piperazinoalkyl) indole derivatives, intermediates and compositions thereof” (Kali-Chemie Pharma GmbH, priority 1991, dated 1994).

The target of one experiment is T1, cyclooxygenase (Mus musculus, UniProt P22437).
T1 construct: A cell suspension containing peritoneal cells of male mice 8-10 weeks old was obtained; endogenous in cells; host or cells: mouse peritoneal macrophages (male mice 8-10 weeks old), zymosan-stimulated
T1 sequence (P22437 27-602): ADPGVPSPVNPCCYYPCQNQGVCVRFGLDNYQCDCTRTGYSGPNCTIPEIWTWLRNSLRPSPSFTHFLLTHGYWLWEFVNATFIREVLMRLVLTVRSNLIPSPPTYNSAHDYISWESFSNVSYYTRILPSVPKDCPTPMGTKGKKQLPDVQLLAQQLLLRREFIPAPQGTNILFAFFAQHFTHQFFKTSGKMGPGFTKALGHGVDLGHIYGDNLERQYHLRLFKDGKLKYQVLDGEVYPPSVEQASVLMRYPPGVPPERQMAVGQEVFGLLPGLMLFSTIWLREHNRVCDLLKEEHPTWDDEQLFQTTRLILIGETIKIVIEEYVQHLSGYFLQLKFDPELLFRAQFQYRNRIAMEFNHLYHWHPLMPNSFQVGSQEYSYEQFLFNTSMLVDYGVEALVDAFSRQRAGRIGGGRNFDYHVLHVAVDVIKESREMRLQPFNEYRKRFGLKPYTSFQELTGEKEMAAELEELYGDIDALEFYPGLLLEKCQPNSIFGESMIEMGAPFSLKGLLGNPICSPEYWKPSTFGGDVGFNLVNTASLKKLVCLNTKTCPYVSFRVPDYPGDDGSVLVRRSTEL
The experiment can be described thus: Cyclooxygenase inhibition: release of 6-keto-PGF1 α from zymosan-stimulated mouse peritoneal macrophage cells. Conditions: 10^-5 mol/l, read-out: In vitro % inhibition effect on the release of 6-keto-PGF1 α. Type of experiment: cell-based. The source says: 5. In vitro determination of cyclooxygenase inhibition and 5-lipoxygenase inhibition.
After activation of the cell, arachidonic acid contained in cell membranes is metabolized in two ways. Leukotrienes, inter alia leukotriene C4, are formed under the action of the enzyme 5-lipoxygenase (5-LO), and prostanoids are formed under the action of the enzyme cyclooxygenase (CO). In in vitro systems, the metabolites are secreted from the cell.
To investigate the cyclooxygenase-inhibiting and the 5-lipoxygenase-inhibiting properties, the inhibitory effect of the test substances on the biosynthesis of the arachidonic acid derivatives leukotriene C4 (LTC4) and 6-ketoprostaglandin F1 α (6-keto-PGF1 α) is determined in vitro on mouse peritoneal macrophage cells. This was accomplished by determining the LTC4 and 6-keto-PGF1 α contents in a culture medium of mouse peritoneal macrophage cells by zymosan stimulation as described by Scott et al. (J. Exp. Med. 152 (1980), 324-335) and by Fradin et al. (Prostaglandins, 33 (1987), 579-589).
A cell suspension containing peritoneal cells of male mice 8-10 weeks old was obtained in a known manner. A commercially available cell culture solution (RPMI 1640 from Messrs. Gibco) was used to which heparin (I0 international units/ml) and antibiotics were added according to the recipe of Bonney et al. (Biochem. J. 176 (1978) 422-433). The cell suspension was adjusted to a cell concentration of 10^6 cells per ml and distributed uniformly on titer plates containing […] (wells). These were kept for two hours in a humidified incubator filled with air enriched with 7% CO2. Cells not adhering to the titer cell walls were then removed by washing. The remaining macrophage cells adhering to the walls were incubated for about 12 hours in a suspension medium to which 0.1% bovine serum albumin (BSA) were added. The suspension medium was then replaced by a Hanks balanced salt solution (HBSS) containing 10 mM Hepes (hydroxyethyl-piperazinoethanesulfonic acid), to which a 0.1% strength solution of the test substances in aqueous, 1% strength dimethylformamide or only the solvent had been added. After 15 minutes the arachidonic acid metabolism was stimulated by adding 10 particles of zymosan (=glycoproteinmixture, isolated from cell walls of beer yeast, Saccharomyces cerevisiae, manufactured by Sigma Chemical Co., Munich) per titer cell. After 2 hours, samples of each of the supernatant liquids were investigated for their 6-keto-PGF1 α and LTC4 contents by means of an enzyme immunoassay (EIA) carried out by the method of Pradelles et al. (Analytical Chem. 57 (1985), 1170-1173). The determination of LTC4 and the determination of 6-keto-PGF1 α were each carried out in comparison with a comparative scale on suitable dilutions of the samples (1:50 to 1:250 for the LTC4 determination and 1:250 to 1:1250 for the 6-keto-PGF1 α determination). To determine the inhibitory effect of a 10^-5 molar concentration of the compounds, the amount of reference eicosanoids was determined and the inhibitory effect was calculated from this in % inhibition compared to the measurements of the zymosan controls.

In the next experiment the target is T2, histamine (H1) receptor (Cavia porcellus, UniProt P31389).
T2 construct: isolated smooth muscle of the guinea-pig ileum; from tissue; host or cells: isolated ileum segments of Dunkin Hartley guinea-pigs
The experiment can be described thus: Antihistamine (H1) effect: inhibition of histamine-induced contractions of isolated guinea-pig ileum in vitro. Type of experiment: cell-based, guinea-pig (Dunkin Hartley). Conditions: histamine 5 × 10^-6 mol/l, test substance 10^-6 mol/l. As for the experimental part: 3. Investigation of the antihistamine (H1) effect based on histamine (H1) receptor antagonism in vitro.
To investigate the histamine (H1) receptor antagonism of the substances, the inhibitory effect thereof on histamine-induced contractions of the smooth musculature of isolated organ was determined in vitro. Isolated strips of organ from the ileum were used. In an organ bath of physiological saline solution, they react to addition of histamine by contracting. Addition of the compounds of the invention decreases this histamine-induced contraction of the smooth musculature of the ileum strips. The extent of decrease of the contraction is an indication of the antihistamine (H1) activity of the compounds. The investigation is carried out analogously to the method originally described by Magnus (Pflugers Arch. 102, 123 (1904)).
Experimental description of the determination of the inhibitory effect on the contraction induced by a 5×10^-6 molar histamine concentration on isolated smooth muscle of the guinea-pig ileum.
For the test, 1.5 cm long segments of the ileum from Dunkin Hartley guinea-pigs having a body weight of 300-500 g were employed. Each strip was placed in an organ bath of 10 ml of Krebs-Henseleit physiological saline solution and attached to a customary apparatus for isotonically measuring changes in length of the ileum strip (automated Celaster measuring apparatus) so that the tissue is under a tension of 1 g. The bath was kept at a pH of 7.4 and aerated with a mixture of 5% CO2 and 95% O2. After an equilibration phase, an isotonic contraction of the tissue was produced by adding histamine in a final concentration of 5×10^-6 mol/l and was washed out again after a contact time of 30 seconds. Only those tissues in which three reproducible contractions were obtained at 10 minute intervals were used in the subsequent test. The test substances were then added in a final concentration of 10^-6 mol/l, and after a contact time of 30 seconds histamine was again added up to a concentration of 5×10^-6 mol/l. The contractions which occurred were measured over the course of 30 seconds. The tissue was then washed several times over a period of 10 minutes. A contraction challenge was then induced again by addition of histamine. The contractions which occurred were again measured over 30 seconds. The difference between the amplitude of the contraction obtained by histamine addition alone and the amplitude of the contraction obtained in the presence of the test substance was determined and calculated as % inhibition.
The inhibitory effects on the contractions induced by histamine 30 seconds after administration of the test substance and on the contractions induced by addition of histamine 10 minutes afterward are given in the table.

Where [1] appears, read: after 30 sec., read-out: in vitro (H1) receptor antagonism % inhibitory effect on histamine-induced contractions of the Ileum, after 30 sec.
The mark [2] stands for this setting: after 10 min. (after washing), read-out: in vitro (H1) receptor antagonism % inhibitory effect on histamine-induced contractions of the Ileum, after 10 min.

Read-outs that look alike come from different tables or passages of the source.

T2 sequence (P31389 whole entry): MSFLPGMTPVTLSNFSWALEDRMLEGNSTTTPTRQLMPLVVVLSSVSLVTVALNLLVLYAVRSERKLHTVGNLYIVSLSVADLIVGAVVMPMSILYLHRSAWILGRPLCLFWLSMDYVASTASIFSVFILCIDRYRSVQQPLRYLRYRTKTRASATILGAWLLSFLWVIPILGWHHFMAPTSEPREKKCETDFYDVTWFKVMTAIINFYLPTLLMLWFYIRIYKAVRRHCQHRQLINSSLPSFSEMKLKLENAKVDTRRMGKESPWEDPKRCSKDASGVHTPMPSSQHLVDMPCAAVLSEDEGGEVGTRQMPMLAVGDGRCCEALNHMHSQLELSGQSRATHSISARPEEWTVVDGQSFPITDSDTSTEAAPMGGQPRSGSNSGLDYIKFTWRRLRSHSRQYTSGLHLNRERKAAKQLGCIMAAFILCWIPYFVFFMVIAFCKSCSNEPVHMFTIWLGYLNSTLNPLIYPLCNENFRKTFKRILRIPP

As for `CCCCCCCC1CCc2cccc3c(CCN4CCN(c5cc(C)ccn5)CC4)c(C)n1c23` (centres unmarked) [Example 4, 4-n-heptyl-5,6-dihydro-2-methyl-1-{2-[4-(4-methylpyridin-2-yl)piperazin-1-yl]ethyl}-4H-pyrrolo[3,2,1-ij]-quinoline], the inhibition at 10 µM at cyclooxygenase is 20%. On the same count and under the same terms, the value for `COc1ccc(-c2c(CCN3CCN(c4cc(C)ccn4)CC3)c3cccc4c3n2CCC4)cc1` [Example 7, 2-(4-methoxy-phenyl)-1-{2-[4-(4-methylpyridin-2-yl)piperazin-1-yl]ethyl}-5,6-dihydro-4H-pyrrolo[3,2,1-ij]quinoline] was 49%; that for `Cc1ccnc(N2CCN(CCc3c(-c4ccc(O)cc4)n4c5c(cccc35)CCC4)CC2)c1` [Example 8, 2-(4-hydroxyphenyl)-1-{2-[4-(4-methylpyridin-2-yl)piperazin-1-yl]ethyl}-5,6-dihydro-4H-pyrrolo[3,2,1-ij]quinoline] was 74%.

For the compound `Cc1ccnc(N2CCN(CCc3c(C)n4c5c(cc([N+](=O)[O-])cc35)CCC4)CC2)c1` [Example 10, 2-Methyl-8-nitro-1-{2-[4-(4-methylpyridin-2-yl)-piperazin-1-yl]ethyl}-5,6-dihydro-4H-pyrrolo[3,2,1-ij]quinoline], the values for the inhibition at 1 µM at histamine (H1) receptor (setting [1]) and on histamine (H1) receptor (setting [2]) were 47% and 92%, respectively. Take `Cc1ccnc(N2CCN(CCc3c(C)n4c5c(cccc35)SCC4)CC2)c1` [Example 11, 5-Methyl-6-{2-[4-(4-methylpyridin-2-yl)piperazin-1-yl]ethyl}-2,3-dihydro-pyrrolo[1,2,3-de]-1,4-benzo-thiazine]: the inhibition at 1 µM at histamine (H1) receptor (setting [1]) stood at 21%; on histamine (H1) receptor (setting [2]) it was 84%.

On to `Cc1ccnc(N2CCN(CCc3c(-c4ccc(OCCCCO)cc4)n4c5c(cccc35)CCC4)CC2)c1` [Example 12, 2-[4-(4-Hydroxybutyloxy)-phenyl]-1-{2-[4-(4-methylpyridin-2-yl)piperazin-1-yl]ethyl}-5,6-dihydro-4H-pyrrolo[3,2,1-ij]quinoline], for which the inhibition at 10 µM on cyclooxygenase came out at 53%. In the case of `Cc1ccnc(N2CCN(CCc3cn4c5c(cccc35)CCC4)CC2)c1` [Example 13, 5,6-Dihydro-1-{2-[4-(4-methylpyridin-2-yl)piperazin-1-yl]ethyl}-4H-pyrrolo[3,2,1-ij]quinoline], the values for the inhibition at 1 µM on histamine (H1) receptor (setting [1]) and on histamine (H1) receptor (setting [2]) were 33% and 63%, respectively. `CCc1c(C(O)CN2CCN(c3cc(C)ccn3)CC2)c2cccc3c2n1CCC3` (centres unmarked) [Example 14, 2-Ethyl-5,6-dihydro-1-{2-[4-(4-methylpyridin-2-yl)piperazin-1-yl]-1-hydroxyethyl}-4H-pyrrolo[3,2,1-ij]quinoline]: at cyclooxygenase, the inhibition at 10 µM amounted to 25%. Consider `CCc1c(CCN2CCN(c3cc(C)ccn3)CC2)c2cccc3c2n1CCC3` [Example 15, 2-Ethyl-5,6-dihydro-1-{2-[4-(4-methylpyridin-2-yl)piperazin-1-yl]ethyl}-4H-pyrrolo[3,2,1-ij]quinoline], for which the results for the inhibition at 1 µM on histamine (H1) receptor (setting [1]) and at histamine (H1) receptor (setting [2]) were 29% and 78%, respectively.

Take `CC(=O)Oc1cc2c3c(c1)c(CCN1CCN(c4cc(C)ccn4)CC1)c(C)n3CCC2` [Example 24, 8-Acetoxy-5,6-dihydro-2-methyl-1-{2-[4-(4-methyl-pyridin-2-yl)piperazin-1-yl]ethyl}-4H-pyrrolo[3,2,1-ij]quinoline]: the inhibition at 1 µM at histamine (H1) receptor (setting [1]) is 81%; at histamine (H1) receptor (setting [2]) it was 94%. For `Cc1ccnc(N2CCN(CCc3c(-c4ccc(F)cc4)n4c5c(cccc35)CCC4)CC2)c1` [Example 47], the inhibition at 10 µM at cyclooxygenase was determined as 69%.

Consider `Cc1ccnc(N2CCN(CCc3c(C)n4c5c(cc(C)cc35)CCC4)CC2)c1` [Example 54], for which the inhibition at 1 µM on histamine (H1) receptor (setting [1]) stood at 8%; at histamine (H1) receptor (setting [2]), 94%. Consider `Cc1cc2c3c(c1)c(CCN1CCC(C(=O)c4ccc(F)cc4)CC1)c(C)n3CCC2` [Example 55], for which the inhibition at 10 µM at cyclooxygenase was found to be 41%. Turning to `Cc1ccnc(N2CCN(CCc3c(C)n4c5c(cccc35)C(C)CC4)CC2)c1` (centres unmarked) [Example 57], the inhibition at 1 µM on histamine (H1) receptor (setting [1]) came out at 20%; at histamine (H1) receptor (setting [2]), 80%. On to `COc1ccc(C2CCc3cccc4c(CCN5CCN(c6cc(C)ccn6)CC5)c(C)n2c34)cc1` (centres unmarked) [Example 59], for which the inhibition at 10 µM on cyclooxygenase was determined as 43%.

As for `Cc1ccnc(N2CCN(CCc3c(C)n4c5c(cc(NC(=O)C(C)C)cc35)CCC4)CC2)c1` [Example 60], the inhibition at 1 µM at histamine (H1) receptor (setting [1]) is 9%; at histamine (H1) receptor (setting [2]), 37%.

In the case of `Cc1ccnc(N2CCN(CCc3c(C)n4c5c(cccc35)CCC4c3ccc(O)cc3)CC2)c1` (centres unmarked) [Example 61], the inhibition at 10 µM at cyclooxygenase came to 65%. On the same count and under the same terms, the figure for `CCCCC1CCc2cccc3c(CCN4CCN(c5cc(C)ccn5)CC4)c(C)n1c23` (centres unmarked) [Example 73, 4-n-butyl-5,6-dihydro-2-methyl-1-{2-[4-(4-methylpyridin-2-yl)piperazin-1-yl]ethyl}-4H-pyrrolo[3,2,1-ij]quinoline] is 29%; for `Cc1ccnc(N2CCN(CCc3c(C)n4c5c(cc(Cc6ccccc6)cc35)CCC4)CC2)c1` [Example 77] it is 42%; for `Cc1ccnc(N2CCN(CCc3c(C)n4c5c(c(Cl)cc(Cl)c35)OCC4)CC2)c1` [Example 79] it is 52%. On the same count and under the same terms, the value for `Cc1ccnc(N2CCN(CCc3c(C)n4c5c(cc(N(C)C)cc35)CCC4)CC2)c1` [Example 81] was 16%.
